In patent publication US20190255091A1, “RNAi AGENTS FOR [sequence] B VIRUS INFECTION” (priority 2016, published 2019):
Values joined by “and” are separate entries in the source; they are usually repeats but may differ in a detail not shown here. Equal entries are not always repeated.

How the values were obtained:
[1] = tested on: HBV genotype C; assay: Serum HBV DNA levels in HBV-infected humanized FRG model mice; assay type: in vivo
Excerpt: (§1) For this study, Male FRG® (genotype Fah−/−/Rag2−/−/Il2rg−/− triple knockout mice on a C57BL/6 background (Yecuris) were transplanted with human hepatocytes when they were 1-2 months old. The human hepatocytes were allowed to repopulate the liver for approximately 6 months with periodic NTBC treatment to discourage growth of mouse hepatocytes. At 9 months of age the mice were given an intravenous inoculation of 4×10^8 genomes/kg HBV genotype C, which infected the human hepatocytes. After 2-3 months, serum HBV DNA levels reached a plateau indicating the human hepatocytes were maximally infected (mouse hepatocytes cannot be infected by HBV). Mice were one year old at the start of treatment with HBV RNAi agents, thus nearing the end of their life span.
(§2) Pre-treatment serum samples were taken on day −10 and day −3. Beginning on day 1, each mouse was administered an oral daily gavage with 0.01 mg/kg Entecavir dissolved in water to inhibit HBV replication. Daily dosing of Entecavir continued until the day mice were euthanized. Entecavir administration was expected to reduce serum HBV DNA in chronically infected human patients, but not reduce HBsAg.
(§3) Each mouse was also given a subcutaneous administration of 100 μl per 20 grams body weight containing the amount of HBV RNAi agent(s) formulated in phosphate buffered saline, or an equal volume of phosphate buffered saline without an HBV RNAi agent, on day 1 and on day 29 (if still alive on day 29), pursuant to the schedule as set forth in Table 47, directly above. […] The injections were performed between the skin and muscle (i.e. subcutaneous injections) into the loose skin over the neck and shoulder area.
Additionally, serum HBV DNA levels were determined from serum samples collected on days −10, −3, 8, 15, 22, 29, 36, and 40, pursuant to the procedure set forth in Example 2, above.

[2] = tested on: HBV genotype C; assay: Serum HBsAg levels in HBV-infected humanized FRG model mice; assay type: in vivo; conditions: Group A: daily oral 0.01 mg/kg Entecavir, PBS (no RNAi agent), individual mouse
Excerpt: as §1, §2, §3
Serum was collected on day 8, day 15, day 22, day 29, day 36, and day 40 and serum Hepatitis B surface antigen (HBsAg) levels were determined pursuant to the procedure set forth in Example 2, above.

## C=C1[C@H](CO)[C@@H](O)C[C@@H]1n1cnc2c(=O)[nH]c(N)nc21 [Entecavir]
[1]; Example 18, 0.01 mg/kg oral daily gavage, absence and presence of HBV RNAi agents
  viral replication (serum HBV DNA): reduced viral replication
[1]; Group A: daily oral 0.01 mg/kg Entecavir, PBS (no RNAi agent), individual mouse, Day 8
  Serum HBV DNA levels normalized to the average of pre-treatment day −10 and day −3, Day 8: 0.072 and 0.130
[1]; Group A: daily oral 0.01 mg/kg Entecavir, PBS (no RNAi agent), individual mouse, Day 15
  Serum HBV DNA levels normalized to the average of pre-treatment day −10 and day −3, Day 15: 0.038 and 0.075
[1]; Group A: daily oral 0.01 mg/kg Entecavir, PBS (no RNAi agent), individual mouse, Day 22
  Serum HBV DNA levels normalized to the average of pre-treatment day −10 and day −3, Day 22: 0.015
[1]; Group A: daily oral 0.01 mg/kg Entecavir, PBS (no RNAi agent), individual mouse, Day 29
  Serum HBV DNA levels normalized to the average of pre-treatment day −10 and day −3, Day 29: 0.027
[1]; Group A: daily oral 0.01 mg/kg Entecavir, PBS (no RNAi agent), individual mouse, Day 36
  Serum HBV DNA levels normalized to the average of pre-treatment day −10 and day −3, Day 36: 0.060
[2]; Day 8
  HBsAg levels normalized to pre-treatment (day −3), Day 8: 0.830 and 1.303
[2]; Day 15
  HBsAg levels normalized to pre-treatment (day −3), Day 15: 0.828 and 1.328
[2]; Day 22
  HBsAg levels normalized to pre-treatment (day −3), Day 22: 0.932
[2]; Day 29
  HBsAg levels normalized to pre-treatment (day −3), Day 29: 0.858
[2]; Day 36
  HBsAg levels normalized to pre-treatment (day −3), Day 36: 1.107
